In patent US12329756B2, “Regulation of eIF4E activity for migraine therapy” (Board of Regents, The University of Texas System, priority 2020, dated 2025):

Columns and labels:
[1] = in vivo; cited from earlier work
hyperglycemic mice = conditions: cited from earlier work
Candida Pkc1 = target: T1, Candida Pkc1 (Candida albicans, UniProt P43057); conditions: cited from earlier work
T1 sequence (P43057 1-1097): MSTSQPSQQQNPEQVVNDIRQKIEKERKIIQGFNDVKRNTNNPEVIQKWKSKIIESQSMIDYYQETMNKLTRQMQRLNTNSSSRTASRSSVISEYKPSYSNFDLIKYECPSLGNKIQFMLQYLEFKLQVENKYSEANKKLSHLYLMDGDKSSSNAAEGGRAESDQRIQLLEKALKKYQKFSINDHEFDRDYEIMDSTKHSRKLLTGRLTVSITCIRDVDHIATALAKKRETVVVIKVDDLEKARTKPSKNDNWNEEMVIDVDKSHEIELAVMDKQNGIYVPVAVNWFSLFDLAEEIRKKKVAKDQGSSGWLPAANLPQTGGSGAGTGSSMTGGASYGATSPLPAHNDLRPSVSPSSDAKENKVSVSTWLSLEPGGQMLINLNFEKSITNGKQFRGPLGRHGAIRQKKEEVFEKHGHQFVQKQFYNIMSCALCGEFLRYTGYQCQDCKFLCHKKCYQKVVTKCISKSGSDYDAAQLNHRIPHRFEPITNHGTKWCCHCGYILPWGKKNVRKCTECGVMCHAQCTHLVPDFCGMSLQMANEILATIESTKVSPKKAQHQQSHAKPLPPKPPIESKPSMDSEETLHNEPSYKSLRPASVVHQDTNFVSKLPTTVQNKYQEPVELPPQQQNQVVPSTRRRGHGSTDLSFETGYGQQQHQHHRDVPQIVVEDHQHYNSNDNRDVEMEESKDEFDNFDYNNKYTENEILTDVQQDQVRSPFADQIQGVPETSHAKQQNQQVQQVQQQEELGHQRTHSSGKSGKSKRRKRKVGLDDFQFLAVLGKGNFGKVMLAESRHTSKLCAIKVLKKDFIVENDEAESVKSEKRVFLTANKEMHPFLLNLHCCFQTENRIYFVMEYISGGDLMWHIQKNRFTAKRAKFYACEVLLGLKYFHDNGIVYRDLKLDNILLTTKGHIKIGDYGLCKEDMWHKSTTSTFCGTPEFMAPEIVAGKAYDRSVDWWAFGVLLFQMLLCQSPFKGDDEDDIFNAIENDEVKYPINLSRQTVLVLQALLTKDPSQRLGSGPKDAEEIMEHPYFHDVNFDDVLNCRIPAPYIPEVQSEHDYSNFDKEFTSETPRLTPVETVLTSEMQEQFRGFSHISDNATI

mice = conditions: Moy et al. (2017); cited from earlier work
[2] = tested on: TNFa, IL-6, IL-10 and CXCL10 production in TMD8, OCI-Ly3 and HBL1 DLBCL cell lines; conditions: cited from earlier work
TNFa mRNA = conditions: cited from earlier work
[3] = tested on: models which harbor activating MyD88 mutations; conditions: in vivo, multiple models harboring activating MyD88 mutations; cited from earlier work
[4] = tested on: eIF4E phosphorylation at serine 209; conditions: in vitro, tumor cell lines, dose-dependent; read-out: IC50 for reduction of eIF4E phosphorylation at serine 209; cited from earlier work
DLBCL cell lines = conditions: multiple DLBCL cell lines; cited from earlier work
hindpaw = conditions: local co-injection with IL-6 into the hindpaw, previous study; cited from earlier work
[5] = local administration; cited from earlier work
female ICR mice = experiment: dural IL-6 facial hypersensitivity and hyperalgesic priming model (von Frey facial withdrawal threshold); format: in vivo; conditions: for hyperalgesic priming: response to second dural stimulus SIF pH 7.0: 25 μg dural co-injection with 0.1 ng IL-6, pH 7.0 given after return to baseline; for acute facial mechanical hypersensitivity after dural IL-6: 25 μg dural co-injection with 0.1 ng IL-6, versus IL-6 alone
Description: Mice received a dural injection of interleukin-6 in the absence or presence of the protein synthesis inhibitor anisomycin or the translation initiation inhibitor 4EGI-1 and were tested for facial hypersensitivity. Upon returning to baseline, mice were given a second, non-noxious dural injection of pH 7.0 to test for priming. Additionally, eIF4ES209A mice lacking phosphorylation of mRNA cap-binding protein eIF4E received dural interleukin-6 or were subjected to repeated restraint stress and then tested for facial hypersensitivity. After returning to baseline, mice were given either dural pH 7.0 or a systemic sub-threshold dose of the nitric oxide donor sodium nitroprusside and tested for priming.
First female mice were administered either 0.1 ng of IL-6, 25 μg of anisomycin (a general protein synthesis inhibitor), or a co-injection of both onto the dura to induce mechanical facial allodynia that persisted for more than 24 h and resolved by 72 h (FIG. 2). Upon returning to baseline, a second stimulus, SIF (pH 7.0), was administered onto the dura to reveal the presence of hyperalgesic priming from the initial IL-6 stimulus. […] This hypersensitivity persisted for more than 5 h.
Similar to the experiments used to generate FIG. 2, 0.1 ng of IL-6, 25 μg of 4EGI-1, a compound that mimics the activity of 4E-BP1, or a co-injection of both was administered onto the dura of female mice (FIG. 3). The resulting mechanical allodynia induced by IL-6 persisted for more than 24 h and resolved after 72 h. Upon returning to baseline, mice were exposed to a dural injection of low pH. […] Thus, assembly of the eIF4F complex locally in the dura appears to be critical to the development of long-lasting mechanical hypersensitivity following repeated stress.
Human recombinant IL-6 protein (R&D Systems) stock solution (100 mg/mL) was prepared in sterile 0.1% BSA and diluted to 1 ng/mL in synthetic interstitial fluid (SIF) consisting of 135 mM NaCl, 5 mM KCl, 10 mM HEPES, 2 mM CaCl2, 10 mM glucose, 1 mM MgCl2 (pH 7.4, 310 mOsm). Anisomycin (Tocris) stock solution (135 mg/mL) and 4EGI-1 (Enzo) stock solution (20 mg/mL) were both prepared in sterile 0.1% BSA and diluted to 5 mg/mL in SIF. Sodium nitroprusside (SNP) (Sigma-Aldrich) was prepared in sterile phosphate buffered saline (PBS) at the time of use and was kept away from light. For dural injections, mice received […] injections of either IL-6, anisomycin, 4EGI-1, SIF, or a combination of IL-6 and anisomycin or IL-6 and 4EGI-1 for acute testing. For testing the ability of mice to prime to the initial stimulus in these dural injection experiments, […] of SIF pH 7.0 were administered onto the dura. […]

Jurkat cells = conditions: cited from earlier work
A549 cells = conditions: cited from earlier work

CC(=O)C1=C(O)C=C2Oc3c(C(N)=O)c(O)cc(O)c3[C@]2(C)C1=O [Cercosporamide]
oral bioavailability [1]: orally bioavailable
plasma glucose (hyperglycemic mice): lowering of plasma glucose
IC50 (Candida Pkc1): 25 nM
cold hypersensitivity induced by peripheral nerve injury (mice): reduced

Cc1cc(Nc2cc(N)ncn2)c(=O)n2c1C(=O)NC21CCCCC1 [eFT508]
production of pro-inflammatory cytokines including TNFa, IL-6, IL-10 and CXCL10 [2]: dose-dependent decreases
oral bioavailability [1]: orally bioavailable
decrease in TNFa mRNA half-life (TNFa mRNA): 2 fold
anti-tumor activity [3]: significant anti-tumor activity
IC50 [4]: 2 to 16 nM
anti-proliferative activity (DLBCL cell lines): anti-proliferative activity

COc1ccc(C[C@H]2NC[C@H](O)[C@H]2OC(C)=O)cc1 [anisomycin]
acute mechanical hypersensitivity after IL-6 into the hindpaw (hindpaw): prevented
mechanical hypersensitivity and injury-induced changes in nociceptor excitability [5]: reduces
hyperalgesic priming: response to second dural stimulus SIF pH 7.0 (female ICR mice): did not respond to the low pH
acute facial mechanical hypersensitivity after dural IL-6 (female ICR mice): only minor differences

O=C(O)C(Cc1ccccc1[N+](=O)[O-])=NNc1nc(-c2ccc(Cl)c(Cl)c2)cs1 [4EGI-1]
mechanical hypersensitivity and injury-induced changes in nociceptor excitability [5]: reduces
activity against Jurkat cells (Jurkat cells): exhibits activity
hyperalgesic priming: response to second dural stimulus SIF pH 7.0 (female ICR mice): robustly blocked
acute facial mechanical hypersensitivity after dural IL-6 (female ICR mice): partially attenuated
activity against A549 cells (A549 cells): exhibits activity
